Numbers after ± are expanded uncertainties.
Assay: refractive index (Na D-line) (dimensionless)
Details: 101.33 kPa, Liquid, Standard Abbe refractometry

refractive index (298.15 K)	refractive index (293.15 K)	Compound
1.3328 ± 0.0024		O [water]
	1.3771 ± 0.0024	CC(=O)OC(C)C [1-methylethyl ethanoate]
1.3616 ± 0.0024		CCO [ethanol]
